Laboratory results published in US11957671B2, “Benzodioxane modulators of leukotriene A4 hydrolase (LTA4H) for prevention and treatment of aging-associated diseases” (Alkahest, Inc., priority 2021, dated 2024).

Tests used:
[1] = tested on: synthesis of LTB4 in human whole blood; experiment: human whole blood (HWB) assay, LTB4 production inhibition; type: cell-based; conditions: calcimycin 20 μM
In short: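 Heparinized human whole blood preincubated with compound 15 min at 37 °C, then stimulated with 20 μM (final) calcimycin for 30 min at 37 °C. Plasma LTB4 measured by antibody-based HTRF; IC50 reported.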

[2] = Pharmacokinetic Measurement of Compound 1 (LC-MS/MS); type: in vivo, mouse; conditions: C57BL/6 mice
From the text: The mice are subjected to cardiac puncture and blood samples were collected using syringes pre-filled with K2EDTA or heparin. […] Hemi-brain tissue was homogenized with 3× volumes of ice-cold water, then further diluted 2× with blank mouse plasma prior to analysis. […]

[3] = tested on: aged wild type (WT; C57BL/6) mice; experiment: Iba-1 histology in hippocampus; type: in vivo, mouse; conditions: 4 weeks of dosing
Description: Brains were collected following saline perfusion and separated by mid-sagittal slice with one-half drop fixed in freshly prepared 4% PFA. PFA was changed to 30% sucrose 24-48 hours later. A second change to 30% sucrose occurred 24 hours later. Brain tissue was sectioned or lysed and analyzed for GFAP, AQP4, or IBA1 by standard histological methods. Images were acquired using a confocal microscope or Axioscan slide scanner.
Three independent cohorts of aged wild type (WT; C57BL/6) mice between twenty to twenty-two months of age (20-22 mo) were homogenized into two (2) groups by body weight, total distance travelled in the open field test, and average velocity in the open field test. Group 1 was administered vehicle control PO daily. Group 2 was administered 10 mg/kg of the LTA4H inhibitor Compound 1 PO daily. Both groups were dosed for either 10 days or 4 weeks daily. Behavioral assays were run during the last week of dosing and animals were sacrificed at the end of the study for histological and molecular assays.

[4] = tested on: Male C57BL/6 mice aged 20-21 months; experiment: Example 15: gene expression and histology, Compound 1 versus SC-57461A; type: in vivo, mouse; conditions: Compound 1 1 mg/kg, SC-57461A 2.5 mg/kg PO bid one month
Description: Male C57BL/6 mice aged 20-21 months are treated with Vehicle, Compound 1, or SC-57461A commercially available LTA4H inhibitor. The mice are dosed with Compound 1 at 1 mg/kg or SC-57461A at 2.5 mg/kg PO bid for one month. Mice are anesthetized and blood and tissues are collected for further analysis. Blood is collected via cardiac puncture in syringes pre-filled with Heparin. Brains are collected following ACSF perfusion and processed for single cell RNA sequencing of either labeled endothelial cells (experiment 1) or NeuN-positive neuronal nuclei (experiment 2). In a+ separate cohort of mice, brains are collected following 4% PFA perfusion for histological endpoints (experiment 3).

[5] = tested on: Male C57BL/6 mice aged 20-21 months; experiment: Cortical brain lysate Cardiovascular Disease Panel (Luminex); type: in vivo, mouse; conditions: 10 mg/kg po one month
Description: Male C57BL/6 mice aged 20-21 months were treated with Vehicle or 10 mg/kg Compound 1 LTA4H inhibitor po for one month. Mice were anesthetized and perfused with saline. Brain tissue was collected, and sub dissected into cortex and hippocampus. Cortex samples were lysed in RIPA buffer and the soluble supernatant fraction was sent to Eve Technologies for analysis on the Cardiovascular Disease Panel using Luminex technology.

aged C57BL/6 mice = experiment: Long term potentiation (LTP) in hippocampal slices; type: in vivo, mouse; conditions: 1 month bid po, 1 mg/kg Compound 1 or 2.5 mg/kg SC57461A
Description: Aged C57BL/6 mice (21 months of age) were treated for 1 month bid po with vehicle, 1 mg/kg Compound 1, or 2.5 mg/kg SC57461A (n=5 mice per treatment group). Electrophysical recordings were performed at AfaSci, Inc, as follows. Animals were deeply anesthetized with halothane and decapitated. The brain was quickly taken out and placed into ice-cold artificial cerebrospinal fluid (ACSF) that was continuously bubbled with 5% CO2/95% O2. The ACSF was composed of (in mM) NaCl 130.0, KCl 2.5, KH2PO4 1.2, CaCl2 2.4, MgSO4 1.3, NaHCO326.0 and glucose 10.0 (pH 7.4). Hippocampal slices (400 μm thick) were prepared using a tissue slicer (Stoelting Co., IL) and incubated at room temperature in continuously oxygenated ACSF for at least 1 h before being recorded with submerged mode in chamber (Harvard Apparatus) at room temperature. Data were collected with an Axopatch-2B amplifier and pClamp 10.4 program (Axon Instruments) through digidata 1320A.
Field population spike (PS) was recorded using glass microelectrode filled with ACSF (resistance: 1-3 MO). Biphasic current pulses (0.2 ms duration for one phase, 0.4 ms in total) were delivered in 10 s intervals through a concentric bipolar stimulating electrode (FHC, Inc.). […] To record field population spikes in dorsal dentate gyrus, the stimulating electrode was placed on the hippocampal fissure to stimulate the bypassing perforant pathway fibers and the recording electrode was placed on inner part of granular cell layer. To record field EPSPs in DG, the stimulating electrode was placed on the hippocampal fissure to stimulate the bypassing perforant pathway fibers and the recording electrode was placed on inner part of granular cell layer. Slices were recorded within 8 hours after dissection. Titanic stimulation consisted of 2 trains of 100 pulses (0.4 ms bipolar pulse duration, 100 Hz) lasting for 1 second with 5 seconds of interval. The slope of EPSP and amplitude of population spike were measured from the initial phase of negative wave with Clampfit10.4. Each data point was measured with average of 3 consecutive traces. LTP was plotted as the percentage to baseline following high frequency stimulation (mean±SEM).

[6] = single oral gavage dose 10, 1, 0.3, 0.1 mg/kg

For O=C(O)C1CCN(Cc2ccc([C@H]3COc4ccccc4O3)cc2)CC1 [Example 1, 1-{4-[(2S)-2,3-dihydro-1,4-benzodioxin-2-yl]benzyl}piperidine-4-carboxylic acid], the IC50 [1] was 179 nM, the brain penetration ([2]; single oral dose) was “brain penetrant, even at low doses” and the “blood levels of Compound 1” value [2, 6] was “sustained and detectable in plasma and blood for up to 24 hours”. The “brain levels of Compound 1” value [2, 6] was “sustained and detectable for up to 24 hours”, the “plasma levels of Compound 1” value [2, 6] was “sustained and detectable in plasma and blood for up to 24 hours” and the “Iba-1 percent thresholded area in the hippocampus” value [3] was “reduction in Iba-1 percent thresholded area”. The “endothelial gene expression in brain compared to SC-57461A” value [4] was “more robust change in endothelial gene expression”, the “histology of endothelial cells and neurons compared to SC-57461A” value [4] was “more robust changes in histology” and the “neuronal gene expression in brain compared to SC-57461A” value [4] was “more robust change in neuronal gene expression”. For the same compound, the “cortical MMP9 protein” value [5] was “trending reduction in cortical MMP9 protein”, the “cortical Pecam-1 protein” value [5] was “trending reduction in cortical Pecam-1 protein” and the “LTP, CA1 region of the hippocampus” value (aged C57BL/6 mice) was “increase in LTP”. For the same compound, the “LTP, DG region of the hippocampus” value (aged C57BL/6 mice) was “increase in LTP”.
